# Source: article PMC12864978, “Covalent modification of a glutamic acid inspired by HaloTag technology” (Nature Communications, 2026)
# Entries after “also recorded” stand apart in the source; their conditions may differ.
# Legend:
# [1] = system: mTORC1 substrate S6P in PA-TU-8902 cells; conditions: 10 µM
# [2] = system: panel of human cell lines; experiment: Cytotoxicity screening in a panel of human cell lines; format: cell-based; conditions: concentrations up to 25 µM
# Experimental: (§1) Real-time cell analysis (RTCA) was conducted using an Incucyte S3 live-cell analysis system (Sartorius AG, Germany). Adherent cell lines were seeded at 5 × 10³ cells per well in 96-well plates containing 100 µl of culture medium and incubated overnight at 37 °C with 5% CO₂. Following attachment overnight, the medium was replaced with fresh medium containing test compounds, with all conditions adjusted to contain 0.5% DMSO. […] Phase-contrast images (2 images per well) were automatically captured at 2-h intervals until control wells (DMSO-treated) reached full confluency. Cell growth was quantified using the instrument’s integrated Basic Analyser module by applying a confluence mask to calculate the percentage of phase area confluence. For dose-response assessment, confluence values at 72 h post-treatment were normalised to the DMSO control and analysed using GraphPad Prism 9.5.1 (GraphPad Software, USA). Dose-response curves were generated and fitted via four-parameter variable slope nonlinear regression to determine cellular IC₅₀ values.
# representative of biological replicates n = 3.
# comet images for each condition were shown.
# time live-cell imaging by Incucyte.
# Source data are provided as […]
# HAP1 PDEδ knockout cells = experiment: Relative growth after 72 h; format: cell-based; conditions: 0 - 50 µM
# Experimental: as §1, with “Adherent cell lines were seeded at 5 × 10³ cells per well in 96-well plates containing 100 µl of culture medium and incubated overnight at 37 °C with 5% CO₂.” left out, “For dose-response assessment, confluence values at 72 h post-treatment were normalised to the DMSO control and analysed using GraphPad Prism 9.5.1 (GraphPad Software, USA).” left out
# [3] = target: T1, PDEδ in the presence of Arl2•GppNHp (Homo sapiens, UniProt O43924); experiment: Competitive fluorescence polarisation assay in the presence of Arl2•GppNHp; format: binding
# T1 construct: His tag; made in house; host or cells: Escherichia coli Rosetta (BL21DE3), pET plasmids
# From the text: (§2) Data are presented as mean ± s.e.m.
# PDEδ [4] = target: T2, PDEδ (Homo sapiens, UniProt O43924); experiment: In-cell covalent modification of PDEδ (immunoblot); conditions: 2 h
# PDEδ in Jurkat cells = target: T3, PDEδ in Jurkat cells (Homo sapiens, UniProt O43924); experiment: CETSA in intact cells (in-cell CETSA); format: cell-based; conditions: 15 min at 37 °C
# T3 construct: host or cells: Jurkat
# Experimental: Cells were collected and resuspended in cold PBS and further washed thrice in cold PBS. […] Afterwards, NP40 alternative was added to a final concentration of 0.4% (v/v), and cells were lysed by five consecutive freeze/thaw cycles. […] Supernatants were transferred to new tubes, and equal volumes of each sample were loaded on an SDS-PAGE gel and subjected to immunoblot analysis.
# [5] = target: PDEδ in Jurkat cell lysates (Homo sapiens, UniProt O43924); experiment: In-lysate covalent modification of PDEδ (anti-PDEδ immunoblot band shift)
# PDEδ [6] = target: T2, PDEδ; experiment: Covalent modification of PDEδ by MALDI mass spectrometry; format: binding; set-up: His tag; made in house; host or cells: Escherichia coli Rosetta (BL21DE3), pET plasmids
# Experimental: The solution was briefly centrifuged before a sample was taken at the designated time for analysis by MALDI. […] Mass spectra were obtained over the m/z range 15,000–25,000 using a Bruker UltrafleXtreme XIAL DI-TOF/TOF mass spectrometer. Percentages of covalent adduct formation were estimated by the relative intensity of the respective peaks in MALDI spectra.
# 1. Supplementary Figures and Tables
# PDEδ (20 µM) was incubated with compounds (60 µM) in HEPES
# Percentages of covalent adduct formation were estimated by the relative intensity of the respective peaks in MALDI spectra. Data are presented as mean ± s.e.m.
# Apparent pseudo -first order kobs was estimated by percentages of covalent adduct formation at 2 hours by MALDI. Plot of kobs (h-1) against concentration (µM) was fitted by GraphPad […]
# Prism Michaelis-Menten model and separate values for kinact and KI were obtained to calculate apparent […]
# PDEδ (20 µM) was incubated with
# as §2
# HEPES buffer, n = 3 for the rest). One-way ANOVA with matched time-points, with Geisser-
# DNA in Jurkat cells = experiment: Comet assay (DNA alkylation); conditions: 10 µM
# PDEδ [7] = target: T2, PDEδ; experiment: Differential scanning fluorimetry (NanoDSF); format: binding; set-up: His tag; made in house; host or cells: Escherichia coli Rosetta (BL21DE3), pET plasmids
# Experimental: Afterwards, a sample of the solution was cooled down to room temperature and was loaded onto a capillary, followed by the measurement of fluorescence intensities at 350 nm and 330 nm from 20 °C up to 90 °C (with a rate of increment of 1 °C/min) using the Prometheus Panta device (NanoTemper® Technologies, DE).
# [8] = system: Rheb localisation in PA-TU-8902 cells; experiment: Immunofluorescence staining of Rheb; format: cell-based, human; conditions: 5 µM, overnight
# Experimental: Immunostaining: compound-treated PA-TU-8902 cells were washed once with cold PBS, fixed with 3.7% paraformaldehyde in PBS by incubation at room temperature for 10 min and permeabilised with 0.3% Triton X-100 in PBS by incubation at room temperature for 15 min. […] After washing with PBS-T three times, PBS-incubated cells were imaged with Observer Z1 (Carl Zeiss, Germany) with a 63× oil objective.
# PDEδ [9] = target: T2, PDEδ; experiment: Competitive fluorescence polarisation assay (FA probe displacement); format: binding; set-up: His tag; made in house; host or cells: Escherichia coli Rosetta (BL21DE3), pET plasmids
smiles,measurement,setting,value
Cc1ccc(-n2nc3c(=O)n(CCCCS(=O)(=O)N(CCc4cccc(CCBr)c4)CC4CCNCC4)nc(C)c3c2C)cc1 [6a],S6P phosphorylation,[1],reduced S6P phosphorylation in a time-dependent manner
same,general cytotoxicity,[2],no general toxicity; also recorded: not observed
same,growth impairment of HAP1 PDEδ knockout cells compared to HAP1 wild type cells,HAP1 PDEδ knockout cells,less pronounced
same,IC50,"[3]; 37 °C, PDEδ 40 nM, Arl2•GppNHp 40 nM, FA probe 24 nM",0.0101 ± 0.0026 µM
same,IC50,[3]; pre-incubated with PDEδ at 37 °C overnight before addition of Arl2•GppNHp,0.0048 ± 0.0015 µM
same,in-cell covalent modification of PDEδ,PDEδ [4],covalent binding of DeltaTag (6a) to PDEδ within 2 h
same,ΔTm at 10 µM,PDEδ in Jurkat cells,9.3 ± 0.2 °C
same,in-lysate covalent modification of PDEδ on anti-PDEδ immunoblot,[5]; 10 µM for 2 h,upward shift of the band indicates covalent binding
same,Estimated % PDEδ labelling,"[5]; 10 µM, 15 min",33%
same,Estimated % PDEδ labelling,"[5]; 10 µM, 15 min, listed as DeltaTag",approximately 33%
same,Estimated % PDEδ labelling,"[5]; 10 µM, 30 min",55%
same,Estimated % PDEδ labelling,"[5]; 10 µM, 60 min",60%
same,time to estimated full labelling of PDEδ,"[5]; 50 µg cell lysates, 10 µM",≤ 2 h
same,KI,PDEδ [6]; Michaelis-Menten fit of kobs,464.9 µM
same,covalent modification of PDEδ in different solvents,"PDEδ [6]; buffers of various pH, 8 h and 24 h",pH-independent
same,% labelling at 24 h,"PDEδ [6]; representative MALDI spectrum, Fig. 2c",100%
same,off-target effects such as DNA alkylation (Comet assay),DNA in Jurkat cells,not observed
same,ΔTm (NanoDSF),PDEδ [7]; 2 h incubation,13.5 ± 0.2 °C
same,ΔTm at 60 µM,"PDEδ [7]; PDEδ 20 µM, compound 60 µM, mean ± s.d., Fig. 2e, read-out: melting temperature shift ΔTm (NanoDSF)",15.5 ± 1 °C
same,cellular Rheb distribution,[8],visible and sustained redistribution of Rheb to endomembranes
same,IC50,PDEδ [9]; 37 °C overnight,0.0065 ± 0.0035 µM
same,IC50,"PDEδ [9]; PDEδ 40 nM, FA probe 24 nM, room temperature overnight",0.0152 ± 0.0086 µM
